The supplement of paper PMC10307832

Columns and labels:
Experiment in all cases: relative viability (nuclei count vs DMSO), 5 days (fraction); higher = more cells survive
[1] = compound: Cn1c(Nc2ccc(C(F)(F)F)cc2)nc2cc(Oc3ccnc(-c4ncc(C(F)(F)F)[nH]4)c3)ccc21 [RAF265] + Cc1nc(NC(=O)N2CCC[C@H]2C(N)=O)sc1-c1ccnc(C(C)(C)C(F)(F)F)c1 [Alpelisib] (partner 2 µM)
Procedure, shortened: (§1)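 After 5 days of treatment, lung cancer cells in 1536-well plates were fixed and stained in a single step (final 0.05% Triton X-100, 1% formaldehyde, 1 ug/ml Hoechst) and their nuclei counted on 4× images. Treatment had been applied by pin tool the day after seeding as one drug alone or as a fixed anchor-drug dose with five library-drug doses (not always all listed) in √10 steps. Relative viability is the nuclei count of treated wells divided by that of vehicle wells, and values are medians of duplicate plates.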

[2] = compound: C1=CC=C2C(=C1)C=CC(=C2SSC3=C(C=CC4=CC=CC=C43)O)O [IPA-3] + C[C@]1(O)C[C@@H](c2nc(-c3ccc4ccc(-c5ccccc5)nc4c3)c3c(N)nccn32)C1 [Linsitinib] (partner 1 µM)
Procedure, shortened: as §1

[3] = compound: Cc1ccc(-n2nc(C(C)(C)C)cc2NC(=O)Nc2ccc(OCCN3CCOCC3)c3ccccc23)cc1 [Doramapimod] + CC1(C)CCC(c2ccc(Cl)cc2)=C(CN2CCN(c3ccc(C(=O)NS(=O)(=O)c4ccc(N[C@H](CCN5CCOCC5)CSc5ccccc5)c(S(=O)(=O)C(F)(F)F)c4)cc3)CC2)C1 [Navitoclax] (partner 0.5 µM)
Procedure, shortened: as §1

[4] = compound: Cn1c(Nc2ccc(C(F)(F)F)cc2)nc2cc(Oc3ccnc(-c4ncc(C(F)(F)F)[nH]4)c3)ccc21 [RAF265] + COc1cc2c(Oc3ccc(NC(=O)C4(C(=O)Nc5ccc(F)cc5)CC4)cc3F)ccnc2cc1OCCCN1CCOCC1 [Foretinib] (partner 0.25 µM)
Procedure, shortened: as §1

Cell Line	relative viability ([1]; first compound 0.01 µM)	relative viability ([1]; first compound 0.03162 µM)	relative viability ([1]; first compound 0.1 µM)	relative viability ([1]; first compound 0.3162 µM)	relative viability ([1]; first compound 1 µM)	relative viability ([2]; first compound 0.2 µM)	relative viability ([2]; first compound 0.6325 µM)	relative viability ([2]; first compound 2 µM)	relative viability ([2]; first compound 6.325 µM)	relative viability ([2]; first compound 20 µM)	relative viability ([3]; first compound 0.02 µM)	relative viability ([3]; first compound 0.06325 µM)	relative viability ([3]; first compound 0.2 µM)	relative viability ([3]; first compound 0.6325 µM)	relative viability ([3]; first compound 2 µM)	relative viability ([4]; first compound 0.01 µM)	relative viability ([4]; first compound 0.03162 µM)	relative viability ([4]; first compound 0.1 µM)	relative viability ([4]; first compound 0.3162 µM)	relative viability ([4]; first compound 1 µM)
NCI-H2085	1	0.961	0.85	1.03	0.891	0.923	0.954	0.856	0.992	1.21	1.22	1.05	1.07	1.3	1.2	0.859	0.929	0.957	0.987	1.06
NCI-H460	0.543	0.356	0.481	–	0.173	1.69	0.603	0.968	0.711	0.771	1.12	1.01	1.14	1.13	1.01	1.06	0.982	1.06	1.04	1.1
Calu-6	0.958	0.771	0.43	0.302	0.274	1.14	0.937	0.878	0.952	0.958	0.885	0.894	0.899	0.92	0.846	0.899	0.782	0.763	0.428	0.29
RERF-LC-KJ	0.791	0.573	0.851	0.625	0.584	0.965	0.876	0.875	0.811	1.01	1.09	1.35	0.858	0.853	1.01	0.867	0.85	0.891	0.759	0.774
LCLC-103H	0.862	1.02	0.854	0.745	0.461	1.1	1.07	1.01	1.1	1.16	–	–	–	–	–	0.802	0.587	0.645	0.504	0.39
HCC-15	0.949	0.776	0.844	0.544	0.439	0.934	0.81	0.951	0.888	0.918	0.657	0.629	0.726	0.691	0.634	1.03	1.04	0.991	0.883	0.673
H3255	0.706	0.836	0.691	–	0.455	1.09	0.874	0.932	0.963	1.11	0.531	0.586	0.553	0.636	0.479	0.88	0.88	0.847	–	0.55
NCI-H1792	0.668	0.663	0.668	0.518	0.168	0.626	0.449	0.693	0.518	0.666	0.601	0.809	0.672	0.617	0.577	–	–	–	–	–
NCI-H1563	0.977	0.999	0.973	0.898	0.985	1.31	1.24	1.32	1.34	1.3	–	–	–	–	–	1.05	1	0.984	0.989	0.935
NCI-H596	0.561	0.444	0.495	0.513	0.359	1.3	0.993	1.04	1.09	1.14	0.927	0.809	0.933	1.01	0.876	0.739	0.929	0.866	0.691	0.626
NCI-H2087	0.861	0.89	0.909	0.709	0.677	1.1	1.05	0.925	0.86	0.995	0.955	0.98	0.933	1.1	0.888	0.967	1.1	0.938	0.797	0.663
NCI-H661	0.865	0.586	0.563	0.47	0.241	0.52	0.466	0.712	0.598	0.646	–	–	–	–	–	1.05	0.944	0.685	0.636	0.521
NCI-H2342	–	–	–	–	–	–	–	–	–	–	–	–	–	–	–	1.11	1.06	1.12	0.992	0.968
HCC-44	0.743	0.699	0.882	0.75	0.695	0.772	0.588	0.708	0.632	0.686	1	0.986	0.986	1.14	0.979	–	–	–	–	–
NCI-H650	1.35	1.17	1.21	0.852	0.398	0.89	0.966	0.877	0.788	1.07	–	–	–	–	–	1.1	0.965	0.974	0.814	0.484
NCI-H358	0.984	0.6	0.477	0.382	0.282	0.789	0.687	0.792	0.686	0.882	–	–	–	–	–	0.623	0.641	0.448	0.239	0.215
ChaGo-K-1	–	–	–	–	–	–	–	–	–	–	1.07	1.25	1.24	–	1.01	0.969	0.827	0.825	0.819	0.646
SW 900	–	–	–	–	–	–	–	–	–	–	–	–	–	–	–	1.01	0.835	0.748	0.769	0.546
ABC-1	1.13	1.01	1.01	1.05	0.619	0.862	0.752	–	0.715	1.06	–	–	–	–	–	1.16	1.15	1.2	1.08	0.514
NCI-H2170	0.773	0.643	0.671	0.524	0.641	–	–	–	–	–	0.512	0.495	0.539	0.601	0.478	1.05	0.971	0.978	0.805	0.88
